Series [1] addresses T1, human BACE1 (Homo sapiens, UniProt P56817). The experiment in a line: BACE1 efficacy assay (FRET-based, commercial BACE1 kit). It is filed as biochemical. Details: purchased Life Technologies P2985. The conditions noted are these: test compound at 10 μM. The protocol: The efficacy assay was performed as a FRET-based assay using a commercially available BACE1 kit (Life Technologies, P2985). 2 μl test compound at 10 μM (final concentration) and 15 μl BACE1 enzyme from the kit (final concentration 3 nM) were preincubated for 15 minutes at room temperature before addition of 15 μl of substrate from the kit (250 nM final concentration) and incubated for additional 90 minutes at room temperature. The assay plate was subsequently read in a Pherastar (Ex540/Em590).

The nature of series [2]: Bioanalysis of brain and plasma samples (exposure, UPLC-MS/MS). It is filed as in vivo, rat. Conditions: male, Sprague Dawley, po, 3 hours post dose; for Kp at 3 h: brain/plasma, rat, read-out: Brain/Plasma ratio. The protocol:
Young adult Male Sprague Dawley rats of approximately 250 g weight were purchased from Charles River and received 0-30 mg/kg of vehicle (10% HP betaCD+1M MeSO4, pH 2.5) or test compounds (dissolved in vehicle) only by oral gavage (p.o). The compounds are dosed at a volume of 5 ml/kg. Cohorts of 5-10 animals were established for each treatment condition.
At T=180 minutes after initial dosing the animals were stunned and decapitated with a guillotine. Trunk-blood was sampled in EDTA coated tubes after decapitation of the animal. The blood was centrifuged at 2200 G at 4° C. for 15 minutes and the plasma was collected and frozen at −80° C. The blood was aliquoted for Aβ ELISA and pharmacokinetic analysis. Immediately following sacrifice, the brain was extracted and split into 2 halves. The right hemibrains were snap frozen on dry ice and stored at −80° C. The left half was dissected; with the front forebrain taken for Aβ ELISA and the remainder used for DMPK analysis. These samples were also snap frozen on dry ice and stored at −80° C. until use for analysis.
TC (test compound) was determined in plasma and brain homogenate using UltraPerformance LC® (U PLC®) chromatography followed by tandem-MS (MS/MS) detection.
Brain homogenate was prepared by homogenizing the brain 1:4 (v/v) with water:2-propanol:DMSO (50:30:20 v/v/v) followed by centrifugation and collection of the supernatant. Calibration standards and QC samples were prepared using a Hamilton robot. 150 μL of ISTD in acetonitrile (1 ng/mL ISTD) was added to 25 μL of calibration standards, QC samples and test samples (plasma and brain homogenate) using a Biomek robot. After centrifugation (6200 g, 4° C., 20 min) 100 μL supernatant from each sample was transferred to a new plate and mixed with 100 μL water with 0.1% formic acid using a Biomek robot (method file InVivo transfer). After a quick centrifugation (6200 g, 4° C., 5 min) the samples were placed in the auto-sampler.
MS/MS detection was done with an Applied Biosystems Sciex API 4000 instrument in positive-ion electrospray ionisation mode. TC and ISDD were detected at a parent>daughter mass to charge ratio (m/z). Nitrogen was used for the nebulizer and collision gases. The peak area correlated linearly with the plasma and brain concentration of the analytes in the range of 1.00-1000 ng/mL plasma and 5.00-5000 ng/g brain (corrected for dilution). If the plasma/brain sample drug concentration was above 1000 ng/mL or 5000 ng/g, the sample was diluted appropriately in blank plasma/blank brain homogenate before analysis.
Compound 1 was administered at doses of 10 mg/kg p.o. and 30 mg/kg p.o. and brain and plasma samples were collected at 3 hours post dose and the following exposures were measured as described above.

A further series deals with P-gp (MDR1). As to the kind of experiment: MDCK-MDR1 assay (permeability, efflux ratio). Conditions: dog. It is filed as in vitro ADME. The protocol: The permeability of the test compounds was assessed in MDCK-MDR1 cells that were cultured to confluency (4-6 days) in a 96 transwell plate. Test compounds were diluted with the transport buffer (HBSS+1% BSA) to a concentration of 0.5 μM and applied to the apical or basolateral side of the cell monolayer. Permeation of the test compounds from A to B direction or B to A direction was determined in triplicate over a 60-minute incubation time at 37° C. and 5% CO2 with a relative humidity of 95%. Test compounds were quantified by LC-MS/MS analysis based on the peaks area ratios of analyte/IS in both the receiver and donor wells of the transwell plate.
The apparent permeability coefficient Papp (cm/s) was calculated using the equation: Papp=(dCr/dt)×Vr/(A×C0)
Where dCr/dt is the cumulative concentration of compound in the receiver chamber as a function of time (μM/s); Vr is the solution volume in the receiver chamber (0.05 mL on the apical side; 0.25 mL on the basolateral side); A is the surface area for the transport, i.e. 0.0804 cm^2 for the area of the monolayer; C0 is the initial concentration in the donor chamber (μM).

The target in series [3] is T1, human BACE1. The experiment in a line: BACE1 binding assay (SPA-based, radioligand displacement). The conditions noted are these: pH 4.5, 10 nM radioligand, 6 nM human BACE1, read-out: BACE1 binding affinity. Details: biotin (biotinylated form); made in house; host or cells: Freestyle HEK293 cells. The protocol:
The binding assay was performed as SPA-based assay using a biotinylated form of human BACE1 recombinantly expressed and subsequently purified from Freestyle HEK293 cells. The binding assay was run in a 50 mM sodium acetate buffer, pH 4.5 containing 50 mM NaCl and 0.03% Tween-20 in white clear bottom 384 plates (Corning #3653). 10 nM (final concentration) radioligand ([^3H]-N-((1S,2R)-1-benzyl-3-cyclopropylamino-2-hydroxy-propyl)-5-(methanesulfonyl-methyl-amino)-N-((R)-1-phenyl-ethyl)-isophthalamide) (TRQ11569 purchased from GE Healthcare) was mixed with test compound at a given concentration, 6 nM (final concentration) human BACE1 and 25 μg Streptavidin coated PVT core SPA beads (RPNQ0007, GE Healthcare Life Sciences) in a total volume of 40 μl. Several concentrations of each test compound were tested in the assay for IC50 determination. The plates were incubated for one hour at room temperature and counted in a WaIlac Trilux counter. […] For each test compound, a IC50 value (the concentration mediating 50% inhibition of the specific binding of the radioligand) was determined from concentration-response curve and used to calculate the Ki from the equation Ki=IC50/(1+L/Kd), where L and Kd are the final concentration of the radioligand used in the assay and the dissociation constant of the radioligand, respectively. The Kd of the radioligand was determined from saturation binding experiments.
A general note: Displacement assays read how much labelled ligand stays bound in the presence of the test substance.

[4] abbreviates: rat brain, 10 mg/kg p.o., read-out: Exp (ng/g), brain.
[5] abbreviates: rat brain, 30 mg/kg p.o., read-out: Exp (ng/g), brain.
[6] abbreviates: rat plasma, 10 mg/kg p.o., read-out: Exp (ng/g), plasma.
Setting [7] is: rat plasma, 30 mg/kg p.o., read-out: Exp (ng/g), plasma.

Read-outs that look alike come from different tables or passages of the source.

Usually inhibition stands for the change of the read-out against control, counted positive when it falls. The efflux ratio is the permeability from basolateral to apical divided by that in the opposite direction, in the common usage.

T1 sequence (P56817 46-501): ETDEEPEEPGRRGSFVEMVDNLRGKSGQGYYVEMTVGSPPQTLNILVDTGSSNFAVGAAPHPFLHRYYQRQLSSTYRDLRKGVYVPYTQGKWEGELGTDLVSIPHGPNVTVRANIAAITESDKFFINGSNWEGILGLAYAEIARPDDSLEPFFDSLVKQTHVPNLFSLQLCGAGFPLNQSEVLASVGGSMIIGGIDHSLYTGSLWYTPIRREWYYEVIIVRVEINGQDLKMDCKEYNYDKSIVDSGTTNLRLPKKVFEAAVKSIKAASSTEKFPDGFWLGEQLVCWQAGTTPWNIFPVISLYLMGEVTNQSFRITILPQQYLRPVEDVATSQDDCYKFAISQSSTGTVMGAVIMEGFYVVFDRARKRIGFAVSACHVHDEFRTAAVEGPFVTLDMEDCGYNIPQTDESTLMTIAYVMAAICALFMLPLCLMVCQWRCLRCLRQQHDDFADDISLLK

As to `COc1cnc(C(=O)Nc2ccc(F)c([C@]3(C)CC[C@@](F)(CF)C(N)=N3)c2)cn1` [Compound 5, N-(3-((2S,5S)-6-Amino-5-fluoro-5-(fluoromethyl)-2-methyl-2,3,4,5-tetrahydropyridin-2-yl)-4-fluorophenyl)-5-methoxypyrazine-2-carboxamide], at human BACE1 [1], the inhibition at 10 µM stood at 103%. Further, the results for the Kp at 3 h in series [2] (10 mg/kg p.o.) and in series [2] (30 mg/kg p.o.) were 1.95 and 2.74, respectively. Besides, the concentration at 3 h in series [2] (setting [4]) amounted to 536 ng/g; in series [2] (setting [5]), 1610 ng/g; in series [2] (setting [6]), 275 ng/g; in series [2] (setting [7]), 587 ng/g. In addition, the efflux ratio at 60 min, 0.5 µM in the series on P-gp (MDR1) came to 1.07. For the same molecule, the Ki at human BACE1 [3] turned out to be 24 nM.

With `C[C@@]1(c2cc(NC(=O)c3cnc(C(F)F)cn3)ccc2F)CC[C@@](F)(CF)C(N)=N1` [Compound 11], at human BACE1 [1], the inhibition at 10 µM amounted to 103%. For the same molecule, the Kp at 3 h was 2.1 in series [2] (10 mg/kg p.o.) and 2.3 in series [2] (30 mg/kg p.o.). Further, the concentration at 3 h in series [2] (setting [4]) amounted to 416 ng/g; in series [2] (setting [5]), 1350 ng/g; in series [2] (setting [6]), 195 ng/g; in series [2] (setting [7]), 590 ng/g. In addition, the efflux ratio at 60 min, 0.5 µM in the series on P-gp (MDR1) was 1.89. In addition, the Ki on human BACE1 [3] came out at 55 nM.

For the molecule `C[C@@]1(c2cc(NC(=O)c3ccc(F)cn3)ccc2F)CC[C@@](F)(CF)C(N)=N1` [Compound 13, N-(3-((2S,5S)-6-Amino-5-fluoro-5-(fluoromethyl)-2-methyl-2,3,4,5-tetrahydropyridin-2-yl)-4-fluorophenyl)-5-fluoropicolinamide], at human BACE1 [1], the inhibition at 10 µM was found to be 100%. The Kp at 3 h in series [2] (10 mg/kg p.o.) was determined as 1.25; in series [2] (30 mg/kg p.o.), 1.59. Also, the concentration at 3 h is 588 ng/g in series [2] (setting [4]), 1590 ng/g in series [2] (setting [5]), 469 ng/g in series [2] (setting [6]) and 1000 ng/g in series [2] (setting [7]). For the same molecule, in the series on P-gp (MDR1), the efflux ratio at 60 min, 0.5 µM turned out to be 1.5. In addition, on human BACE1 [3], the Ki worked out at 40 nM.

The record behind these values is patent publication US10011596B2, “2-amino-3-fluoro-3-(fluoromethyl)-6-methyl-6-phenyl-3,4,5,6-tetrahydropyridines as BACE1 inhibitors” (H. Lundbeck A/S, priority 2015, dated 2018).
